Measurements from patent US20090227547A1, “Novel salt form of a Beta2-adrenergic agonist quinolin-2-one derivative” (Glaxo Group Limited, priority 2005, published 2009).

Columns and labels:
Type in all cases: physicochemical
[1] = physical and chemical stability on storage; conditions: general statement
hygroscopicity = assay: hygroscopicity
[2] = solubility in solvents (crystallisation antisolvents); conditions: in a wide range of solvents usable as antisolvents (water, tetrahydrofuran, lower alcohols, acetone)

With “N-[2-[4-[(3-phenyl-4-methoxyphenyl)amino]phenyl]ethyl]-(R)-2-hydroxy-2-(8-hydroxy-1,2-dihydro-2-oxoquinolin-5-yl)ethylammonium 2,5-dichlorobenzenesulfonate” the “physical and chemical stability on storage” value [1] was “good physical and chemical stability on storage”, the hygroscopicity (hygroscopicity) was “substantially non-hygroscopic” and the solubility [2] was “limited solubility”.
